Data reported in BigSolDB 2.1.

O=c1cnc(Br)c[nH]1
solubility (mole fraction)
Details	in DMF	in acetone	in acetonitrile	in ethanol	in ethylene glycol	in isopropanol	in methanol	in n-propanol	in propylene glycol	in water
278.15 K	0.00576	0.00534	0.00413	0.000696	0.00014	0.00258	0.000272	0.00382	0.000194	8.21e-06
283.15 K	0.00768	0.00685	0.00519	0.000989	0.000203	0.00333	0.000366	0.00472	0.00025	1.29e-05
288.15 K	0.00988	0.00877	0.00625	0.00128	0.000284	0.00439	0.000485	0.00579	0.000338	1.81e-05
293.15 K	0.0124	0.0106	0.00766	0.00166	0.000386	0.00534	0.000633	0.0072	0.000448	2.46e-05
298.15 K	0.0151	0.013	0.00941	0.0021	0.000504	0.00678	0.000782	0.00879	0.000589	3.2e-05
303.15 K	0.0181	0.0161	0.0113	0.00251	0.00065	0.00863	0.000951	0.0106	0.000766	4.13e-05
308.15 K	0.0219	0.0194	0.0136	0.00303	0.000845	0.0109	0.00116	0.0129	0.000961	5.32e-05
313.15 K	0.026	0.023	0.0161	0.0036	0.00111	0.0135	0.0014	0.0152	0.00121	6.69e-05
318.15 K	0.0309	0.0275	0.019	0.00434	0.00139	0.0168	0.00169	0.018	0.00152	8.43e-05
323.15 K	0.0365	0.0328	0.0222	0.00525	0.00174	0.0205	0.00203	0.0213	0.00187	0.000106
